Patent US20220062262A1, “GSNO REDUCTASE INHIBITOR AS AN ADJUNCT THERAPY WITH REMOTE ISCHEMIC CONDITIONING AND THROMBOLYTIC REPERFUSION THERAPIES IN STROKE” (KING ABDULAZIZ UNIVERSITY, priority 2020, published 2022)

Columns and labels:
GSNOR = target: T1, GSNOR (Mus musculus, UniProt P28474); assay: Plasma GSNOR activity (GSNO-dependent NADH consumption) after PT-stroke in aged female mice; assay type: in vivo; settings: 2.5 mg/kg after PT-stroke, P<0.01
T1 construct: Plasma was isolated from freshly drawn blood after cardiac puncture under deep isoflurane anesthesia; from tissue; host or cells: plasma of aged female C57/B6-background mice after PT-stroke
Experimental: Plasma was isolated from freshly drawn blood after cardiac puncture under deep isoflurane anesthesia, and mice were sacrificed to collect brain tissue. Plasma and brain tissue samples were snap-frozen until assay.
A method of GSNO dependent NADH consumption was used to determine GSNOR activity as reported. Briefly, brain tissue was homogenized in a buffer containing 50mM Tris-HCl (pH 8.0), 150 mM NaCl, 1-mM EDTA, 0.1% Triton X-100 and 1:100 protease inhibitor cocktail and centrifuged (10, 000 g×10 minutes at 4° C.) to obtain supernatant. […] The consumption of NADH was monitored with fluorescence spectrophotometry at an excitation wavelength of 340 nm and emission at 460 nm. GSNOR activity was calculated by subtracting the rate of NADH consumption incubated in the presence of GSNO minus the rate of NADH consumption without GSNO in samples.
A sex difference was found in the basal level of plasma GSNOR activity, showing higher GSNOR activity in female mice compared to age-matched males (P<0.05; N=6/gp) as shown in FIG. 3A. […] Statistical significance was determined at P<0.05 and were indicated with asterisks or different letters indicating statistically different Means.

[1] = tested on: pMCAL-stroke (permanent occlusion of distal MCA trunk); assay: Permanent MCA occlusion (pMCAo/pMCAL) stroke model in adult male and ovariectomized female mice; assay type: in vivo; settings: 2.5 mg/kg IV 1 h after stroke, repeated daily for 2 days, males and OVX-females
Experimental: The procedure for pMCAo was performed in mice as reported by Hoda et al. (Stroke 2012, 43(10):2794-2799). Briefly, under anesthesia, the junction of left zygomatic arch and squamous bone was drilled to make a 2-3 mm burr hole to expose the main trunk of MCA. The left MCA distal to the lenticulostriate branches was electrocauterized carefully without bleeding. The wound was closed, and mice were put under post-op recovery as described above. Sham-operated group underwent similar surgical procedures but without electrocauterization. Cortical LDF (Perimed Inc, Sweden) was performed to confirm the induction of stroke in anesthetized mice. Briefly, mice were anesthetized as above and a shallow indent was made in the parietal skull using a low-speed drill to place the LDF probe holder (PH07-6, Perimed Inc) aligning the holder hole at the stereotaxic coordinates (AP: 2-mm and lateral 3-mm with respect to bregma). The needle of LDF-probe (PH407, Perimed Inc) was inserted into the probe holder and the signal was recorded to confirm a significant drop in CBF following stroke. Mice were anesthetized as above, body temperature was maintained at 37±0.5 ° C., the skull was shaved, and a midline skin incision was made to primarily expose the MCA region. Perfusion images were acquired using PeriCam high resolution LASCA-Imager (PSI-Z system, Perimed Inc.) with a 70-mW built-in laser diode for illumination and 1388×1038 pixels CCD camera installed 10 cm above the skull (speed 19 Hz, and exposure time 6 mSec, 1.3 x 1.3 cm). Acquired video and images were analyzed for the dynamic changes in CBF. Overall perfusion of the ipsilateral ischemic hemisphere was determined, normalized with the equal size of region of interest (ROI) from the uninjured contralateral hemisphere and the relative CBF was calculated. […] Therefore, larger white area indicates higher injury and infarction volume. […] Performance of each mouse on the narrow beam was quantified by measuring the time it took for the mouse to traverse the 100-cm distance on the narrow beam and the number of foot slips that occurred in each trial. […]

ischemia/reperfusion = settings: 5 mg/kg at 2 hr post ischemia/reperfusion, daily for 3 days or 2 weeks; cited from earlier work

T1 sequence (P28474 whole entry): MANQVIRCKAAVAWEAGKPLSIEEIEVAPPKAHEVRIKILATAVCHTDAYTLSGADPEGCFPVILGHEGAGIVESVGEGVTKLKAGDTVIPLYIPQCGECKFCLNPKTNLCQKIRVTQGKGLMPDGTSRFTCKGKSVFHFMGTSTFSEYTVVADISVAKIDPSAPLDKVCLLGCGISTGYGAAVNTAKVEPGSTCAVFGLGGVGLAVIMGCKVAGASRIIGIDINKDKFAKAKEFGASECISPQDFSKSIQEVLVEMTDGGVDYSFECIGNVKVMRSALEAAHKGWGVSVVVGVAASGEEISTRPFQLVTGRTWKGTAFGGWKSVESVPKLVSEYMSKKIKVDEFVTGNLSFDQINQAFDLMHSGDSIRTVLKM

Cc1cc(C(N)=O)ccc1-n1c(CCC(=O)O)ccc1-c1ccc(-n2ccnc2)cc1 [GRI therapy, N6022]
post-stroke plasma GSNOR activity (GSNOR): significantly inhibited the post-stroke plasma GSNOR activity
restoration of CBF (% CBF, LSCI) vs vehicle ([1]; 72 h post-pMCAo): improved restoration of CBF in both sexes significantly
infarct progression (TTC infarct volume) ([1]; 72 h post-stroke): significantly prevented the infarct progression sex-independently in both groups
motor function, narrow beam walk test (time to traverse, foot slips) ([1]; 72 h post-stroke): equally effective in improving motor function in both sexes
Neurological score, survival rate and motor/cognitive skills (ischemia/reperfusion): improved
